The values that follow come from ChEMBL document CHEMBL6092168, “Identification of novel indolinone derivatives as CTSC inhibitors to treat inflammatory bowel disease by modulating inflammatory factors” (Eur J Med Chem, 2024).

pIC50: −log10 of the molar value. Activity calls are given as the source filed them. The rule behind the calls is not given here.

By pIC50 is commonly meant the IC50 on a negative log10 scale, so that one unit is a factor of ten. For orientation: inhibition means how much of the control response was suppressed.

For test [1], the system named is RAW264.7. Description: Anti-inflammatory activity in mouse RAW264.7 cells assessed as inhibition of LPS-induced NO production preincubated for 1 hr followed by LPS addition and measured after 24 hrs by Griess reagent based assay. Type of test: functional, cell-based. (In general: The Griess reaction detects nitrite, a stable product of nitric oxide.)
Test [2] concerns RAW264.7. In words: Anti-inflammatory activity in mouse RAW264.7 cells assessed as inhibition of LPS-induced IL-1beta production at 5 uM preincubated for 1 hr followed by LPS addition and measured after 24 hrs by ELISA relative to control. The format is functional. Details: scale not given: the % may be the effect or the level left. The conditions noted are these: time 25 hrs. In general terms: In an ELISA, binding on a coated surface is turned into a signal by an enzyme label.

In test [3] the test system is RAW264.7. Description: Anti-inflammatory activity in mouse RAW264.7 cells assessed as inhibition of LPS-induced TNF-alpha production at 5 uM preincubated for 1 hr followed by LPS addition and measured after 24 hrs by ELISA relative to control. The format is functional. Also noted: scale not given: the % may be the effect or the level left. The settings on record: time 25 hrs.

The next test has as its target Dipeptidyl peptidase 1 (Homo sapiens, UniProt P53634). In words: Inhibition of Cathepsin C in human U-937 cells using H-Gly-Arg-AMC as substrate at 10 uM incubated for 5 days by fluorescence based microplate reader analysis relative to control. The format is cell-based. The conditions noted are these: time 5.0 day.
Test [4] concerns the target T1, Cathepsin G (Homo sapiens) (UniProt P08311).
T1 sequence (whole entry): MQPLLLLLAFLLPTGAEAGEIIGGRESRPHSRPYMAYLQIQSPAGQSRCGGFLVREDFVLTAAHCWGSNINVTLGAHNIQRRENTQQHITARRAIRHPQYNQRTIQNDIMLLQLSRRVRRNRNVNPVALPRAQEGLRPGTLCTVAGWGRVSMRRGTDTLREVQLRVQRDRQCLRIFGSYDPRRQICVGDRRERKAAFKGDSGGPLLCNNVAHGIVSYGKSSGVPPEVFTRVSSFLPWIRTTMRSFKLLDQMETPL
Description: Inhibition of Cathepsin G in human U-937 cells using N-Suc-Ala-Ala-Pro-Phe-pNA as substrate at 10 uM incubated for 5 days by […] based microplate reader analysis relative to control. Type of test: cell-based. The conditions noted are these: time 5.0 day.

The target in test [5] is T2, Neutrophil elastase (Homo sapiens) (UniProt P08246).
T2 sequence (whole entry): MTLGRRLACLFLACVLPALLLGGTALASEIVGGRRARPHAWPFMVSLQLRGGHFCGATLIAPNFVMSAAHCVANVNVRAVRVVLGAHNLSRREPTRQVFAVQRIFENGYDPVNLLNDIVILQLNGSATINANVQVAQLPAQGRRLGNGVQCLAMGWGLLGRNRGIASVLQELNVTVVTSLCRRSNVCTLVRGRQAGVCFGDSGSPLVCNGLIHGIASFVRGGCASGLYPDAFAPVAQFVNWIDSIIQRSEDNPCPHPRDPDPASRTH
Description: Inhibition of neutrophil elastase in human U-937 cells using N-MeSuc-Ala-Pro-Val-pNA as substrate at 10 uM incubated for 5 days by […] based microplate reader analysis relative to control. The conditions noted are these: time 5.0 day. Type of test: cell-based.

For test [6], the target named is T3, Myeloblastin (Homo sapiens) (UniProt P24158).
T3 sequence (whole entry): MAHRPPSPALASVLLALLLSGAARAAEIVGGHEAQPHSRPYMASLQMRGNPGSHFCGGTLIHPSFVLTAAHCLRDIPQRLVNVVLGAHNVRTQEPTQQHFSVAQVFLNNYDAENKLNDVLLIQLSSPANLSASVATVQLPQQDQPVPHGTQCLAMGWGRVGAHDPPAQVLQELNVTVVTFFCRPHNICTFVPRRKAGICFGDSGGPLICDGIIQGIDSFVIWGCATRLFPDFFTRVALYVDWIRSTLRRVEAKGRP
Description: Inhibition of proteinase 3 in human U-937 cells using aminobenzoyl-Val-Ala-Asp-Cys-Ala-Asp-Gln-ethylenediamine 2,4-dinitrophenyl as substrate at 10 uM incubated for 5 days by fluorescence based microplate reader analysis relative to control. Type of test: cell-based. The conditions noted are these: time 5.0 day.

The test system of test [7] is Mus musculus. Description: Anti-inflammatory activity in DSS-induced ulcerative colitis C57BL/6 mouse model assessed as effect on Cathepsin C activity at 60 mg/kg, administered twice daily. The format is functional, organism-based.
In test [8] the test system is Mus musculus. Description: Anti-inflammatory activity in DSS-induced ulcerative colitis C57BL/6 mouse model assessed as effect on neutrophil serine proteases level at 60 mg/kg, administered twice daily. The format is functional, organism-based.
The subject of test [9] is Mus musculus. Description: Anti-inflammatory activity in DSS-induced ulcerative colitis male C57BL/6 mouse model assessed as reduction in Cathepsin C level in serum at 60 mg/kg administered via gavage for 10 days relative to control. The settings on record: time 10.0 day. The format is functional.
Test [10] deals with Mus musculus. In words: Anti-inflammatory activity in DSS-induced ulcerative colitis male C57BL/6 mouse model assessed as reduction in neutrophil elastase level in serum at 60 mg/kg administered via gavage for 10 days relative to control. Type of test: functional. The settings on record: time 10.0 day.
Test [11] relates to Mus musculus. In words: Anti-inflammatory activity in DSS-induced ulcerative colitis male C57BL/6 mouse model assessed as reduction in Cathepsin G level in serum at 60 mg/kg administered via gavage for 10 days relative to control. Type of test: functional. The settings on record: time 10.0 day.
For test [12], the system named is Mus musculus. In words: Anti-inflammatory activity in DSS-induced ulcerative colitis male C57BL/6 mouse model assessed as reduction in Cathepsin C level in colon at 60 mg/kg administered via gavage for 10 days. Type of test: functional. The settings on record: time 10.0 day.
Test [13] has as its system Mus musculus. In words: Anti-inflammatory activity in DSS-induced ulcerative colitis male C57BL/6 mouse model assessed as reduction in neutrophil elastase level in colon at 60 mg/kg administered via gavage for 10 days relative to control. The format is functional. The conditions noted are these: time 10.0 day.
Test [14] has as its system Mus musculus. In words: Anti-inflammatory activity in DSS-induced ulcerative colitis male C57BL/6 mouse model assessed as reduction in proteinase 3 level in colon at 60 mg/kg administered via gavage for 10 days relative to control. Type of test: functional. The conditions noted are these: time 10.0 day.
Test [15] deals with Mus musculus. Description: Anti-inflammatory activity in DSS-induced ulcerative colitis male C57BL/6 mouse model assessed as reduction in Cathepsin G level in colon at 60 mg/kg administered via gavage for 10 days relative to control. The settings on record: time 10.0 day. Type of test: functional.

Chain of Dipeptidyl peptidase 1 (P53634 25-134 limits assumed): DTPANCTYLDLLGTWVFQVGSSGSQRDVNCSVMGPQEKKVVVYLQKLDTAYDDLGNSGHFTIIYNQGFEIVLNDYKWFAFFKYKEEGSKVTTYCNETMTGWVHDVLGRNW
Chain of Dipeptidyl peptidase 1 (P53634 231-394 limits assumed): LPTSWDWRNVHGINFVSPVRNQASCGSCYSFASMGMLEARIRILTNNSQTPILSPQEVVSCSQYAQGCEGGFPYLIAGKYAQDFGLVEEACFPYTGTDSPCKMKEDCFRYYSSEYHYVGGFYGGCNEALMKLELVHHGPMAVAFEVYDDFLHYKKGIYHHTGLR
Chain of Dipeptidyl peptidase 1 (P53634 395-463 limits assumed): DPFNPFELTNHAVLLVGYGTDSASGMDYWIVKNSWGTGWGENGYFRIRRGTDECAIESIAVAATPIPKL

As for `Cn1c(=O)oc2ccc(-c3ccc(C[C@@H](C#N)NC(=O)[C@@H]4CNCCCO4)cc3)cc21` [BRENSOCATIB], in the test on RAW264.7 [1], the negative-log IC50 (pIC50) was 5.17. For the same molecule, the values for the Activity in the test with RAW264.7 [2] and in the test on RAW264.7 [3] were 70.9% and 65.1%, respectively. Also, the inhibition was found to be 10.1% on Dipeptidyl peptidase 1, 12.1% in test [4], 8.29% in [5] and 16.7% in [6]. The result in the test on Mus musculus [7] and in the test with Mus musculus [8] was Active.

For the molecule `Nc1ccc(O)c(C(=O)O)c1`, the outcome in the test with Mus musculus [9], in the test with Mus musculus [10], in the test with Mus musculus [11], with Mus musculus [12], in the test on Mus musculus [13] and with Mus musculus [14] was Active. Further, the result in the test with Mus musculus [15] was Active.
